These results are taken from patent US7550430B2, “Cationic antimicrobial peptides and compositions” (E.I. du Pont de Nemours and Company, priority 2003, dated 2009).

Converted amounts (≈) assume the structure as drawn. Where two headings read alike, the source gives them in different places. Marks after values point to notes of the source that are not given here. Where a SMILES comes first, the peptide text is derived from it. Bridges are numbered along the chain shown (N, C = ends). Where no end group is shown, it is not given here. The star is where a group is joined. Acm = CC(=O)NC* Where only a bound is given, the exact number is not on record here.

Holding throughout (format): cell-based
For one assay, the system named is E. coli ATCC 25922. As to conditions: for MIC: ATCC 25922, 24 h; for MIC E. coli 25922 Expt. #1 / MIC E. coli 25922 Expt. #2: ATCC 25922. The protocol:
(§1) The minimal inhibitory concentration (MIC) for the peptides was determined in sterile microtiter plates in a final volume of 200 μL using Trypticase Soy Broth (TSB; Difco Laboratories, Detroit, Mich.) as the growth medium. Serial two-fold dilutions of the peptide stock were made in the plate wells such that concentrations ranged from 512 to 2 μg/mL in a volume of 100 μL. Each well was then inoculated with 100 μL of a dilute suspension of bacteria in TSB yielding a final concentration of 1×10^4 bacteria/mL. The final peptide concentrations ranged from […]. The assay plates were incubated at 37° C. for 24 hours inside a Bioscreen C microtitre plate reader (Thermo Labsystems; Vantaa, Finland). Optical Density (OD) of the medium at 600 nm was recorded every 20 minutes to monitor cell growth. The lowest concentration of peptide preventing bacterial growth during the 24 hr period was defined as the MIC.

In a further assay the test system is P. aeruginosa 27853. The protocol: as §1
Another assay concerns K. pneumoniae 700603. The method, then:
as §1

A further assay relates to S. aureus 29213. The method, then: as §1
For a further assay, the system named is E. coli ATCC #25922. As to conditions: ATCC #25922, 4 h. The method, then:
Antimicrobial activity of the peptide immobilized on polymer substrates was evaluated in a Shake Flask Test. Test substance (polymer with immobilized peptide) or control substance (polymer alone) (50 mg suspended in […] phosphate buffer (pH 7)) was added to a sterile culture plate well; a dilute suspension of bacteria (1×10^5 cells/mL final concentration in the well) in 0.6 mM phosphate buffer was added to the well for a final volume of 5 mL. The plate was shaken on a platform shaker at room temperature. At specified times (4 hours and 24 hours), an aliquot was removed from the culture plate (0.1 mL, in triplicates), and serial dilutions ranging from 1 to 100 fold were made for enumeration of cells on trypticase soy agar (TSA) plates. The TSA plates were incubated for 20 hr at 37° C., and the number of colony forming units (CFU) per mL was determined.

On to “KGLKKGLKGLKKLLKL [SEQ ID NO:40, KGLKKGLKGLKKLLKL]”, for which the minimum inhibitory concentration (MIC) (usually the lowest concentration that inhibits growth of the organism) against E. coli ATCC 25922 amounted to 256 µg/mL.
Turning to “KGLKKLLKLLKKGLKL [SEQ ID NO:5, KGLKKLLKLLKKGLKL]”, the “MIC P. aeruginosa 27853” value with P. aeruginosa 27853 was 8 µg/mL. Further, in the assay with K. pneumoniae 700603, the “MIC K. pneumoniae 700603” value was in the range of 8 to 16 µg/mL. Further, in the assay with E. coli ATCC 25922, the “MIC E. coli 25922 Expt. #1” value is on record as “<=4* μg/mL” and the “MIC E. coli 25922 Expt. #2” value was 2 µg/mL. In addition, the “MIC S. aureus 29213” value against S. aureus 29213 (ATCC 29213) is 32+ μg/mL.
In the case of `CC(C)C[C@@H]1NC(=O)CNC(=O)[C@H](CCCCN)NC(=O)[C@H](CC(C)C)NC(=O)[C@H](CC(C)C)NC(=O)[C@H](CCCCN)NC(=O)[C@H](CCCCN)NC(=O)[C@H](CC(C)C)NC(=O)[C@@H](NC(=O)[C@@H](N)CCCCN)CSSC[C@@H](C(=O)O)NC(=O)[C@H](CC(C)C)NC(=O)[C@H](CCCCN)NC(=O)[C@H](CC(C)C)NC(=O)[C@H](CC(C)C)NC(=O)[C@H](CCCCN)NC(=O)[C@H](CCCCN)NC1=O` [SEQ ID NO:31] (H-KCLKKLLKGLKKLLKLC-OH; disulfide 2-17; N-terminus and C-terminus assumed), the minimum inhibitory concentration (MIC) in the assay on E. coli ATCC 25922 turned out to be 16 µg/mL (≈ 8.13 µM).
For the compound “KGLKKLLKLGKKLLKL [SEQ ID NO:3, KGLKKLLKLGKKLLKL]”, the “MIC P. aeruginosa 27853” value in the assay on P. aeruginosa 27853 is 8 µg/mL. Besides, in the assay with K. pneumoniae 700603, the “MIC K. pneumoniae 700603” value is 8 µg/mL. Besides, in the assay on E. coli ATCC 25922, the “MIC E. coli 25922 Expt. #1” value was “<=4* μg/mL” and the “MIC E. coli 25922 Expt. #2” value is 2 µg/mL. Further, the “MIC S. aureus 29213” value with S. aureus 29213 (29213) is 64 to 128 µg/mL.
On to `CC(=O)NCSC[C@H](NC(=O)[C@H](CC(C)C)NC(=O)[C@H](CCCCN)NC(=O)[C@H](CC(C)C)NC(=O)[C@H](CC(C)C)NC(=O)[C@H](CCCCN)NC(=O)[C@H](CCCCN)NC(=O)[C@H](CC(C)C)NC(=O)CNC(=O)[C@H](CCCCN)NC(=O)[C@H](CC(C)C)NC(=O)[C@H](CC(C)C)NC(=O)[C@H](CCCCN)NC(=O)[C@H](CCCCN)NC(=O)[C@H](CC(C)C)NC(=O)[C@@H](N)CSCNC(C)=O)C(=O)O` [SEQ ID NO:25, CLKKLLKGLKKLLKLC] (H-C(Acm)LKKLLKGLKKLLKLC(Acm)-OH; N-terminus and C-terminus assumed), for which the MIC against E. coli ATCC 25922 came out at 8 µg/mL (≈ 4.03 µM).
Same read-out and setting: in the case of `CC(C)C[C@@H]1NC(=O)CNC(=O)[C@H](CCCCN)NC(=O)[C@H](CC(C)C)NC(=O)[C@H](CC(C)C)NC(=O)[C@H](CCCCN)NC(=O)[C@H](CCCCN)NC(=O)[C@H](CC(C)C)NC(=O)[C@@H](N)CSSC[C@@H](C(=O)O)NC(=O)[C@H](CC(C)C)NC(=O)[C@H](CCCCN)NC(=O)[C@H](CC(C)C)NC(=O)[C@H](CC(C)C)NC(=O)[C@H](CCCCN)NC(=O)[C@H](CCCCN)NC1=O` [SEQ ID NO:38] (H-CLKKLLKGLKKLLKLC-OH; disulfide 1-16; N-terminus and C-terminus assumed) it was 32 µg/mL (≈ 17.4 µM).
As to “KGGKKLLKGLKKLLKL [SEQ ID NO:43, KGGKKLLKGLKKLLKL]”, the “MIC P. aeruginosa 27853” value with P. aeruginosa 27853 amounted to 16 µg/mL. The “MIC K. pneumoniae 700603” value with K. pneumoniae 700603 was 64 µg/mL. Besides, in the assay with E. coli ATCC 25922, the “MIC E. coli 25922 Expt. #1” value is recorded as “<=4* μg/mL” and the “MIC E. coli 25922 Expt. #2” value came to 2 µg/mL. Further, in the assay on S. aureus 29213 (29213), the “MIC S. aureus 29213” value turned out to be 256 µg/mL.
On to `CC(=O)NCSC[C@H](NC(=O)[C@H](CC(C)C)NC(=O)[C@H](CCCCN)NC(=O)[C@H](CC(C)C)NC(=O)[C@H](CC(C)C)NC(=O)[C@H](CCCCN)NC(=O)[C@H](CCCCN)NC(=O)[C@H](CC(C)C)NC(=O)CNC(=O)[C@H](CCCCN)NC(=O)[C@H](CC(C)C)NC(=O)[C@H](CC(C)C)NC(=O)[C@H](CCCCN)NC(=O)[C@H](CCCCN)NC(=O)[C@H](CC(C)C)NC(=O)[C@H](CSCNC(C)=O)NC(=O)[C@@H](N)CCCCN)C(=O)O` [compound 17, KC(Acm)LKKLLKGLKKLLKLC(Acm)] (H-KC(Acm)LKKLLKGLKKLLKLC(Acm)-OH; N-terminus and C-terminus assumed), for which, in the assay with E. coli ATCC 25922, the minimal inhibitory concentration (MIC) is 4 µg/mL (≈ 1.89 µM).
With “KGLKKLGKLLKKLLKL [SEQ ID NO:42, KGLKKLGKLLKKLLKL]”, the “MIC P. aeruginosa 27853” value with P. aeruginosa 27853 was 8 to 16 µg/mL. In addition, the “MIC K. pneumoniae 700603” value in the assay on K. pneumoniae 700603 fell in the range of 4 to 8 µg/mL. In the assay with E. coli ATCC 25922, the “MIC E. coli 25922 Expt. #1” value is listed as “<=4* μg/mL” and the “MIC E. coli 25922 Expt. #2” value was found to be 2 µg/mL. Also, the “MIC S. aureus 29213” value against S. aureus 29213 (29213) amounted to 64 µg/mL.
Take “KGLKKLLKGLKKLLKL [SEQ ID NO:1, KGLKKLLKGLKKLLKL]”: in the assay on E. coli ATCC #25922, the “log reduction in E. coli CFU/mL” value worked out at 4.6 log. Also, the “MIC P. aeruginosa 27853” value with P. aeruginosa 27853 came out at 2 µg/mL. The “MIC K. pneumoniae 700603” value against K. pneumoniae 700603 fell in the range of 8 to 16 µg/mL. Also, in the assay with E. coli ATCC 25922, the “MIC E. coli 25922 Expt. #2” value fell in the range of 2 to 4 µg/mL and the minimum inhibitory concentration (MIC) was 4 µg/mL. Also, the “MIC S. aureus 29213” value against S. aureus 29213 (29213) stood at 8 µg/mL.
Take “KGLKKGLKLLKKLLKL [SEQ ID NO:2, KGLKKGLKLLKKLLKL]”: the “MIC P. aeruginosa 27853” value in the assay on P. aeruginosa 27853 turned out to be 8 µg/mL. Besides, the “MIC K. pneumoniae 700603” value with K. pneumoniae 700603 fell in the range of 4 to 8 µg/mL. Also, in the assay with E. coli ATCC 25922, the “MIC E. coli 25922 Expt. #1” value is given as “<=4* μg/mL” and the “MIC E. coli 25922 Expt. #2” value turned out to be 2 µg/mL. In the assay on S. aureus 29213 (29213), the “MIC S. aureus 29213” value lay in the range of 64 to 128 µg/mL.
